From paper PMC9138505, “Small Molecule 20S Proteasome Enhancer Regulates MYC Protein Stability and Exhibits Antitumor Activity in Multiple Myeloma” (Biomedicines, 2022)
“And” between values parts separate entries of the source, which are not always exact repeats. Equal values may be shown once.

Tested on: RPMI-8226 cells
Experiment: Gene expression profiling, NanoString nCounter PanCancer Pathways Panel, ROSALIND analysis
Format: cell-based, human
Description: RPMI-8226 cells were treated with vehicle or TCH-165 (10 μM) for 4 h. Total RNA was obtained using the mirVana miRNA Isolation Kit, with phenol (Thermofisher Scientific; AM1560; Waltham, MA, USA). Total RNA was quantified by Qubit (Thermofisher Scientific; Q32855; Waltham, MA, USA). and gene expression was evaluated against the nCounter® PanCancer Pathways Panel^TM according to the standard NanoString protocol.
Data were analyzed by ROSALIND® [36] with a hyperscale architecture developed by ROSALIND, Inc. (San Diego, CA, USA). Normalization, fold changes and p-values were calculated using criteria provided by NanoString. ROSALIND follows the nCounter® Advanced Analysis protocol of dividing counts within a lane by the geometric mean of the normalizer probes from the same lane. Housekeeping probes to be used for normalization are selected based on the geNorm algorithm, as implemented in the NormqPCR R library. Fold changes and p-values are calculated using the fast method as described in the nCounter Advanced Analysis 2.0 User Manual. The p-value adjustment is performed using the Benjamini–Hochberg method of estimating false discovery rates (FDR). Clustering of genes for the final heatmap of differentially expressed genes was done using the PAM (Partitioning Around Medoids) method using the fpc R library. Hypergeometric distribution was used to analyze the enrichment of pathways, gene ontology, domain structure and other ontologies. The topGO R library was used to determine local similarities and dependencies between GO terms in order to perform Elim pruning correction. Several database sources were referenced for enrichment analysis, including Interpro [40], NCBI [41], MSigDB [42, 43], REACTOME [44], WikiPathways. Enrichment was calculated relative to a set of background genes relevant to the experiment.

[1] = RPMI-8226 cells, TCH-165 treatment samples 1-3

## CCOC(=O)[C@]1(c2ccccc2)N=C(c2ccc(OC)cc2)N(Cc2ccccc2)[C@@H]1c1ccc(NCc2ccccc2)cc1 [TCH-165]
RPMI-8226, TCH-165 samples 1-3
  VEGFC normalized gene expression: 4.571 and 4.699 and 4.731
  VHL normalized gene expression: 9.098 and 9.164 and 9.268
  WEE1 normalized gene expression: 9.934 and 9.744 and 9.778
  WHSC1L1 normalized gene expression: 9.091 and 9.1675 and 9.063
  WHSC1 normalized gene expression: 9.949 and 9.835 and 9.719
  WIF1 normalized gene expression: 5.758 and 4.855 and 4.805
  WNT2B normalized gene expression: 5.308 and 4.427 and 4.528
  WNT2 normalized gene expression: 5.827 and 5.242 and 5.592
  WNT3 normalized gene expression: 5.044 and 4.7789 and 4.9095
  WNT4 normalized gene expression: 4.488 and 3.817 and 3.5707
  WNT5A normalized gene expression: 6.308 and 6.154 and 6.184
  WNT6 normalized gene expression: 4.924 and 4.739 and 4.437
  WNT7A normalized gene expression: 5.208 and 4.962 and 4.9095
  WNT7B normalized gene expression: 3.723 and 3.27 and 3.805
  WNT10B normalized gene expression: 5.259 and 5.27 and 5.211
  WNT11 normalized gene expression: 4.308 and 4.154 and 3.876
  WNT16 normalized gene expression: 4.986 and 4.27 and 4.693
  WT1 normalized gene expression: 4.571 and 4.476 and 4.341
  XPA normalized gene expression: 8.195 and 7.97 and 8.109
  XRCC4 normalized gene expression: 8.283 and 8.506 and 8.426
  ZAK normalized gene expression: 4.793 and 4.2133 and 4.238
  ZBTB16 normalized gene expression: 2.986 and 2.891 and 3.0682
  ZBTB32 normalized gene expression: 4.101 and 4.093 and 3.731
  ZIC2 normalized gene expression: 4.86 and 4.154 and 4.291
[1]
  Normalized gene expression, ACVR1C: 4.723 and 4.614 and 4.693
  Normalized gene expression, ALKBH2: 6.955 and 6.808 and 6.991
  Normalized gene expression, ALKBH3: 8.467 and 8.37 and 8.417
  Normalized gene expression, AMER1: 6.704 and 6.569 and 6.56
  Normalized gene expression, APH1B: 6.101 and 5.7789 and 5.991
  Normalized gene expression, ARID1B: 9.42 and 9.304 and 9.241
  Normalized gene expression, ARID2: 9.514 and 9.28 and 9.287
  Normalized gene expression, ASXL1: 9.934 and 9.758 and 9.627
  Normalized gene expression, BIRC7: 4.401 and 4.2133 and 4.0682
  Normalized gene expression, BMP8A: 6.156 and 5.759 and 5.787
  Normalized gene expression, BRIP1: 8.576 and 8.341 and 8.466
  Normalized gene expression, CACNA2D3: 2.986 and 2.154 and 2.483
  Normalized gene expression, CACNA2D4: 4.793 and 4.739 and 4.291
  Normalized gene expression, CACNG6: 5.101 and 4.093 and 4.653
  Normalized gene expression, CALML6: 4.986 and 4.996 and 5.038
  Normalized gene expression, CARD11: 6.55 and 6.729 and 6.472
  Normalized gene expression, CASP12: 5.208 and 4.891 and 4.653
  Normalized gene expression, CCNB3: 2.401 and 3.3768 and 3.184
  Normalized gene expression, COL6A6: 3.986 and 4.324 and 4.184
  Normalized gene expression, COL24A1: 5.488 and 5.2133 and 5.316
  Normalized gene expression, COL27A1: 4.986 and 5.154 and 5.098
  Normalized gene expression, CREB3L1: 3.86 and 3.657 and 3.39
  Normalized gene expression, CREB3L3: 2.723 and 2.891 and 2.943
  Normalized gene expression, CREB3L4: 7.001 and 6.678 and 6.702
  Normalized gene expression, CRLF2: 5.723 and 5.798 and 5.75
  Normalized gene expression, CXXC4: 6.156 and 6.2133 and 5.858
  Normalized gene expression, DTX3: 3.986 and 4.2133 and 4.238
  Normalized gene expression, FAAP24: 7.343 and 7.012 and 7.17
  Normalized gene expression, FBXW7: 6.571 and 6.488 and 6.528
  Normalized gene expression, GDF6: 4.101 and 4.657 and 4.0068
  Normalized gene expression, GNG12: 4.793 and 4.855 and 4.693
  Normalized gene expression, H3F3C: 12.4579 and 12.5235 and 12.4804
  Normalized gene expression, HDAC10: 8.066 and 7.808 and 7.722
  Normalized gene expression, HDAC11: 5.156 and 4.927 and 5.291
  Normalized gene expression, HES5: 6.355 and 5.657 and 5.893
  Normalized gene expression, HHIP: 3.986 and 3.739 and 3.653
  Normalized gene expression, IL22RA1: 5.156 and 5.0613 and 5.316
  Normalized gene expression, IL22RA2: 5.445 and 4.817 and 4.437
  Normalized gene expression, IL23R: 4.986 and 4.614 and 4.291
  Normalized gene expression, KMT2C: 9.426 and 9.461 and 9.455
  Normalized gene expression, LAMA1: 4.986 and 4.27 and 4.184
  Normalized gene expression, MAML2: 8.948 and 9.039 and 8.92
  Normalized gene expression, NFKBIZ: 7.259 and 6.9093 and 6.832
  Normalized gene expression, NKD1: 5.445 and 5.3768 and 5.437
  Normalized gene expression, NSD1: 7.758 and 7.832 and 7.75
  Normalized gene expression, PAK7: 2.986 and 3.891 and 3.39
  Normalized gene expression, PDGFC: 6.509 and 6.415 and 6.1271
  Normalized gene expression, PDGFD: 4.401 and 4.27 and 4.0068
  Normalized gene expression, PHF6: 9.829 and 9.914 and 9.8
  Normalized gene expression, PLA2G4E: 3.86 and 4.029 and 4.0682
  Normalized gene expression, PLA2G4F: 4.208 and 4.154 and 3.483
  Normalized gene expression, POLD4: 8.314 and 8.1355 and 8.194
  Normalized gene expression, PRMT8: 4.308 and 4.476 and 4.341
  Normalized gene expression, PTCRA: 3.986 and 4.3768 and 4.238
  Normalized gene expression, PTPN5: 4.571 and 4.476 and 4.39
  Normalized gene expression, SHC4: 5.571 and 4.891 and 5.0068
  Normalized gene expression, SOX17: 4.101 and 4.154 and 3.483
  Normalized gene expression, SPRY4: 5.044 and 5.093 and 5.366
  Normalized gene expression, SUV39H2: 8.912 and 8.7789 and 8.832
  Normalized gene expression, TBL1XR1: 13.2408 and 13.1822 and 13.1378
  Normalized gene expression, TCF7L1: 5.101 and 4.739 and 5.461
  Normalized gene expression, THEM4: 7.581 and 7.249 and 7.3536
  Normalized gene expression, TNN: 4.986 and 4.7789 and 4.39
  Normalized gene expression, TRAF7: 10.2015 and 10.0643 and 10.0175
  Normalized gene expression, TSLP: 4.571 and 4.699 and 4.769
  Normalized gene expression, WNT5B: 5.208 and 5.093 and 5.238
  Normalized gene expression, WNT10A: 5.924 and 6.045 and 6.17
